From ChEMBL document CHEMBL4270589, “Novel coumarin-pyrazole carboxamide derivatives as potential topoisomerase II inhibitors: Design, synthesis and antibacterial activity” (Eur J Med Chem, 2018)
In brackets after ≈: the same amount, converted by molar mass.

Columns and labels:
Format in all cases: functional
Salmonella enterica = experiment: Antibacterial activity against Salmonella enterica ATCC 9184 after 24 hrs by agar dilution method; settings: ATCC 9184, 24 h
Escherichia coli = experiment: Antibacterial activity against Escherichia coli ATCC 25922 after 24 hrs by agar dilution method; settings: ATCC 25922, 24 h
Staphylococcus aureus = experiment: Antibacterial activity against Staphylococcus aureus ATCC 12600 after 24 hrs by agar dilution method; settings: ATCC 12600, 24 h
Listeria monocytogenes = experiment: Antibacterial activity against Listeria monocytogenes ATCC 15313 after 24 hrs by agar dilution method; settings: ATCC 15313, 24 h

Structure (SMILES)	MIC (Salmonella enterica)	MIC (Escherichia coli)	MIC (Staphylococcus aureus)	MIC (Listeria monocytogenes)
N#Cc1cnn(-c2ccc(Cl)cc2)c1NC(=O)c1cc2cc(Br)ccc2oc1=O	0.25 µg/mL (≈ 0.532 µM)	8 µg/mL (≈ 17 µM)	4 µg/mL (≈ 8.52 µM)	16 µg/mL (≈ 34.1 µM)
N#Cc1cnn(-c2ccc(F)cc2)c1NC(=O)c1cc2ccccc2oc1=O	> 128 µg/mL	> 128 µg/mL	> 128 µg/mL	64 µg/mL (≈ 171 µM)
Cc1ccc2oc(=O)c(C(=O)Nc3c(C(=O)O)cnn3-c3ccc(F)cc3)cc2c1	32 µg/mL (≈ 78.6 µM)	4 µg/mL (≈ 9.82 µM)	64 µg/mL (≈ 157 µM)	32 µg/mL (≈ 78.6 µM)
CCOC(=O)c1cnn(-c2ccccc2)c1NC(=O)c1cc2cc(Br)ccc2oc1=O	64 µg/mL (≈ 133 µM)	16 µg/mL (≈ 33.2 µM)	16 µg/mL (≈ 33.2 µM)	16 µg/mL (≈ 33.2 µM)
O=C(O)c1cnn(-c2ccc(F)cc2)c1NC(=O)c1cc2ccccc2oc1=O	> 128 µg/mL	> 128 µg/mL	> 128 µg/mL	> 128 µg/mL
CCOC(=O)c1cnn(-c2ccc(Cl)cc2)c1NC(=O)c1cc2cc([N+](=O)[O-])ccc2oc1=O	64 µg/mL (≈ 133 µM)	64 µg/mL (≈ 133 µM)	32 µg/mL (≈ 66.3 µM)	32 µg/mL (≈ 66.3 µM)
CCOC(=O)c1cnn(-c2ccc(Cl)cc2)c1NC(=O)c1cc2cc(C)ccc2oc1=O	8 µg/mL (≈ 17.7 µM)	4 µg/mL (≈ 8.85 µM)	8 µg/mL (≈ 17.7 µM)	16 µg/mL (≈ 35.4 µM)
O=C(O)c1cnn(-c2ccccc2)c1NC(=O)c1cc2cc(Cl)ccc2oc1=O	> 128 µg/mL	32 µg/mL (≈ 78.1 µM)	32 µg/mL (≈ 78.1 µM)	32 µg/mL (≈ 78.1 µM)
N#Cc1cnn(-c2ccc(F)cc2)c1NC(=O)c1cc2cc([N+](=O)[O-])ccc2oc1=O	> 128 µg/mL	> 128 µg/mL	> 128 µg/mL	> 128 µg/mL
N#Cc1cnn(-c2ccccc2)c1NC(=O)c1cc2cc(Br)ccc2oc1=O	> 128 µg/mL	> 128 µg/mL	> 128 µg/mL	> 128 µg/mL
CCOC(=O)c1cnn(-c2ccc(Cl)cc2)c1NC(=O)c1cc2cc(Cl)ccc2oc1=O	32 µg/mL (≈ 67.8 µM)	4 µg/mL (≈ 8.47 µM)	2 µg/mL (≈ 4.23 µM)	32 µg/mL (≈ 67.8 µM)
N#Cc1cnn(-c2ccc(F)cc2)c1NC(=O)c1cc2cc(Br)ccc2oc1=O	> 128 µg/mL	64 µg/mL (≈ 141 µM)	2 µg/mL (≈ 4.41 µM)	64 µg/mL (≈ 141 µM)
O=C(O)c1cnn(-c2ccc(Cl)cc2)c1NC(=O)c1cc2ccccc2oc1=O	32 µg/mL (≈ 78.1 µM)	64 µg/mL (≈ 156 µM)	32 µg/mL (≈ 78.1 µM)	32 µg/mL (≈ 78.1 µM)
CCOC(=O)c1cnn(-c2ccc(C)cc2)c1NC(=O)c1cc2cc(Br)ccc2oc1=O	2 µg/mL (≈ 4.03 µM)	32 µg/mL (≈ 64.5 µM)	32 µg/mL (≈ 64.5 µM)	2 µg/mL (≈ 4.03 µM)
CCOC(=O)c1cnn(-c2ccc(C)cc2)c1NC(=O)c1cc2cc(C)ccc2oc1=O	> 128 µg/mL	64 µg/mL (≈ 148 µM)	32 µg/mL (≈ 74.2 µM)	> 128 µg/mL
O=C(O)c1cnn(-c2ccccc2)c1NC(=O)c1cc2cc([N+](=O)[O-])ccc2oc1=O	64 µg/mL (≈ 152 µM)	64 µg/mL (≈ 152 µM)	64 µg/mL (≈ 152 µM)	> 128 µg/mL
CCOC(=O)c1cnn(-c2ccc(C)cc2)c1NC(=O)c1cc2cc([N+](=O)[O-])ccc2oc1=O	> 128 µg/mL	> 128 µg/mL	> 128 µg/mL	> 128 µg/mL
CCOC(=O)c1cnn(-c2ccc(C)cc2)c1NC(=O)c1cc2ccc(N(CC)CC)cc2oc1=O	> 128 µg/mL	> 128 µg/mL	> 128 µg/mL	> 128 µg/mL
CCOC(=O)c1cnn(-c2ccc(C)cc2)c1NC(=O)c1cc2cc(Cl)ccc2oc1=O	> 128 µg/mL	64 µg/mL (≈ 142 µM)	4 µg/mL (≈ 8.85 µM)	2 µg/mL (≈ 4.43 µM)
CCOC(=O)c1cnn(-c2ccccc2)c1NC(=O)c1cc2cc(Cl)ccc2oc1=O	64 µg/mL (≈ 146 µM)	16 µg/mL (≈ 36.5 µM)	4 µg/mL (≈ 9.14 µM)	64 µg/mL (≈ 146 µM)
CCOC(=O)c1cnn(-c2ccc(Cl)cc2)c1NC(=O)c1cc2cc(Br)ccc2oc1=O	32 µg/mL (≈ 61.9 µM)	8 µg/mL (≈ 15.5 µM)	4 µg/mL (≈ 7.74 µM)	1 µg/mL (≈ 1.94 µM)

Structure (SMILES)	MIC (Salmonella enterica)	MIC (Escherichia coli)	MIC (Staphylococcus aureus)	MIC (Listeria monocytogenes)
CCN(CC)c1ccc2cc(C(=O)Nc3c(C#N)cnn3-c3ccc(C)cc3)c(=O)oc2c1	> 128 µg/mL	> 128 µg/mL	> 128 µg/mL	> 128 µg/mL
Cc1ccc(-n2ncc(C#N)c2NC(=O)c2cc3cc(Cl)ccc3oc2=O)cc1	> 128 µg/mL	> 128 µg/mL	> 128 µg/mL	> 128 µg/mL
CCOC(=O)c1cnn(-c2ccc(F)cc2)c1NC(=O)c1cc2cc([N+](=O)[O-])ccc2oc1=O	> 128 µg/mL	64 µg/mL (≈ 137 µM)	32 µg/mL (≈ 68.6 µM)	8 µg/mL (≈ 17.2 µM)
N#Cc1cnn(-c2ccccc2)c1NC(=O)c1cc2cc([N+](=O)[O-])ccc2oc1=O	> 128 µg/mL	> 128 µg/mL	> 128 µg/mL	> 128 µg/mL
CCN(CC)c1ccc2cc(C(=O)Nc3c(C(=O)O)cnn3-c3ccc(C)cc3)c(=O)oc2c1	64 µg/mL (≈ 139 µM)	64 µg/mL (≈ 139 µM)	64 µg/mL (≈ 139 µM)	64 µg/mL (≈ 139 µM)
CCOC(=O)c1cnn(-c2ccc(F)cc2)c1NC(=O)c1cc2ccc(N(CC)CC)cc2oc1=O	> 128 µg/mL	> 128 µg/mL	> 128 µg/mL	> 128 µg/mL
N#Cc1cnn(-c2ccccc2)c1NC(=O)c1cc2cc(Cl)ccc2oc1=O	64 µg/mL (≈ 164 µM)	32 µg/mL (≈ 81.9 µM)	16 µg/mL (≈ 40.9 µM)	32 µg/mL (≈ 81.9 µM)
Cc1ccc2oc(=O)c(C(=O)Nc3c(C#N)cnn3-c3ccc(F)cc3)cc2c1	> 128 µg/mL	> 128 µg/mL	> 128 µg/mL	> 128 µg/mL
O=C(O)c1cnn(-c2ccc(Cl)cc2)c1NC(=O)c1cc2cc(Br)ccc2oc1=O	32 µg/mL (≈ 65.5 µM)	4 µg/mL (≈ 8.19 µM)	32 µg/mL (≈ 65.5 µM)	32 µg/mL (≈ 65.5 µM)
O=C(O)c1cnn(-c2ccccc2)c1NC(=O)c1cc2cc(Br)ccc2oc1=O	> 128 µg/mL	> 128 µg/mL	> 128 µg/mL	> 128 µg/mL
CCOC(=O)c1cnn(-c2ccc(Cl)cc2)c1NC(=O)c1cc2ccccc2oc1=O	16 µg/mL (≈ 36.5 µM)	64 µg/mL (≈ 146 µM)	16 µg/mL (≈ 36.5 µM)	64 µg/mL (≈ 146 µM)
Cc1ccc(-n2ncc(C(=O)O)c2NC(=O)c2cc3cc(C)ccc3oc2=O)cc1	> 128 µg/mL	64 µg/mL (≈ 159 µM)	32 µg/mL (≈ 79.3 µM)	> 128 µg/mL
CCOC(=O)c1cnn(-c2ccc(F)cc2)c1NC(=O)c1cc2cc(Cl)ccc2oc1=O	64 µg/mL (≈ 140 µM)	64 µg/mL (≈ 140 µM)	> 128 µg/mL	> 128 µg/mL
N#Cc1cnn(-c2ccccc2)c1NC(=O)c1cc2ccccc2oc1=O	32 µg/mL (≈ 89.8 µM)	64 µg/mL (≈ 180 µM)	16 µg/mL (≈ 44.9 µM)	64 µg/mL (≈ 180 µM)
CCOC(=O)c1cnn(-c2ccc(F)cc2)c1NC(=O)c1cc2cc(Br)ccc2oc1=O	> 128 µg/mL	4 µg/mL (≈ 8 µM)	64 µg/mL (≈ 128 µM)	> 128 µg/mL
Cc1ccc(-n2ncc(C(=O)O)c2NC(=O)c2cc3cc([N+](=O)[O-])ccc3oc2=O)cc1	64 µg/mL (≈ 147 µM)	4 µg/mL (≈ 9.21 µM)	> 128 µg/mL	> 128 µg/mL
O=C(O)c1cnn(-c2ccc(F)cc2)c1NC(=O)c1cc2cc(Br)ccc2oc1=O	32 µg/mL (≈ 67.8 µM)	4 µg/mL (≈ 8.47 µM)	> 128 µg/mL	32 µg/mL (≈ 67.8 µM)
CCOC(=O)c1cnn(-c2ccc(F)cc2)c1NC(=O)c1cc2ccccc2oc1=O	> 128 µg/mL	> 128 µg/mL	> 128 µg/mL	> 128 µg/mL
N#Cc1cnn(-c2ccc(Cl)cc2)c1NC(=O)c1cc2ccccc2oc1=O	16 µg/mL (≈ 40.9 µM)	32 µg/mL (≈ 81.9 µM)	4 µg/mL (≈ 10.2 µM)	32 µg/mL (≈ 81.9 µM)
O=C(O)c1cnn(-c2ccc(Cl)cc2)c1NC(=O)c1cc2cc([N+](=O)[O-])ccc2oc1=O	32 µg/mL (≈ 70.4 µM)	32 µg/mL (≈ 70.4 µM)	32 µg/mL (≈ 70.4 µM)	32 µg/mL (≈ 70.4 µM)
